Measured values as given in patent US20240245805A1 (Orna Therapeutics, Inc., priority 2020, published 2024).
Like-named read-outs stand apart in the source and are kept apart here.

Tests used:
[1] = cited from earlier work
1C1C7 cells [2] = test: 5′ UTR variants, GLuc in 1C1C7 cells; format: cell-based; conditions: CK IRES with 5′ UTR variants
From the text: This example describes modifications of circular RNAs by inserting 5′ UTR variants. […] 1C1C7 cells were transfected with the circular RNAs.

HEK293 cells = format: cell-based, human; conditions: circular RNA encoding Gluc with the listed IRES (UTR truncated to 675 nt) transfected into HEK293 cells; supernatant after 24 hours
1C1C7 cells [3] = test: GLuc luminescence and functional stability by IRES, 1C1C7 cells
[4] = Table 2, lipids of Formula (II)

For `CCCCCCCCC(=O)N(CCCN(C)C)C(CCCCCCCCC(=O)OCC(CCCC)CCCC)CCCCCCCCC(=O)OCC(CCCC)CCCCCC` (centres unmarked) [II-9], the pKa [1, 4] is listed as 6.27.

In the case of `CCCCCCCCC(CCCC)COC(=O)CCCCCCCCC(CCCCCCCCC(=O)OCC(CCCC)CCCCCC)N(CCCN(C)C)C(=O)C(CC)CCCCC` (centres unmarked) [II-35], the pKa [1, 4] is listed as 5.97.

In the case of `CCCCCCCCC(CCCCCC)CCCOC(=O)CCCCCN(CCCCCC(=O)OCC(CCCCCC)CCCCCCCC)CCN(C)C` (centres unmarked) [Lipid I-22], the pKa ([1]; Table 1, lipids of Formula I) is given as 6.53.

In the case of `CCCCCCCCC(CCCCCC)CCCOC(=O)CCCCCN(CCCCCC(=O)OCC(CCCCCC)CCCCCCCC)CCN(C)CC` (centres unmarked) [Lipid I-33], the pKa ([1]; Table 1, lipids of Formula I) is listed as 6.27.

In the case of `CCCCCCCCCCCCC(CCCCCCCCCC)C(=O)OCCCCCCN(CCCCCCOC(=O)C(CCCCCCCCCC)CCCCCCCCCCCC)CCN(C)C` (centres unmarked) [Lipid I-39], the pKa ([1]; Table 1, lipids of Formula I) is listed as 6.82.

For “UTR2: 5′ UTR variant: canonical Kozak sequence with "a 36-nucleotide unstructured/low GC spacer sequence" added (UTR2) (DNA AATAAGAGAGAAAAGAAGAGTAAGAAGAAATATAAGAGCCACC; 5' UTR segment within a circular RNA construct, further chemistry not given here)”, the translation (1C1C7 cells [2]) was “more effective”.

For “UTR3: 5′ UTR variant: "a higher-GC/structured spacer with a kozak sequence" (UTR3) (DNA CGAACTAGTATTCTTCTGGTCCCCACAGACTCAGAGAGAACCCGCCACC; 5' UTR segment within a circular RNA construct, further chemistry not given here)”, the translation (1C1C7 cells [2]) was “did not show the same benefit”.

B1: EV C102 (nucleic acid, listed as Enterovirus sp.)
chain: CTTTGTACGCCTGTTTTACATCCCCTCCCCCACGTAACTTTAGAAGCAATTCAACAAGTTCAATAGAGGGGGTACAAACCAGTATCACCACGAACAAGCACTTCTGTTTCCCCGGTGATTTTACATAAGCTGTGCCCACGGCTGAAAGTGAATGATCCGTTACCCGCTCGAGTACTTCGAAAAGCCTAGTATCGCTTTGGGATCTTCGACGCGTTGCGCTCAGCACTCTACCCCGAGTGTAGCTTAGGCTGATGAGTCTGGGCATTCCCCATCGGCGACGATGGCCCAGGCTGCGTTGGCGGCCTACCCATGGCTAACGCCATGGGACGCTAGTTGTGAACAAGGTGTGAAGAGCCTATTGAGCTACTCGAGAGTCCTCCGGCCCCTGAATGCGGCTAATCCCAACCACGGATCAGGTGCCTCCAACCCAGGAGGTGGCCTGTCGTAACGCGCAAGTCTGTGGCGGAACCGACTACTTTGGGTGTCCGTGTTTCCTTTTATCTTTTAAATGGCTGCTTATGGTGACAATCATAGATTGTTATCATAAAGCGAATTGGATTGGCCATCCGGTGAAATACAAACACATTATTTACTTGTTTGTTGGATTTACTCCGCTCACACAGCTTACTCCTAAGATAATATTTATTGTATTGCTGGTAAGGAGACACTATTATA
modifications: lipid formulation
With B1 the “Expression (luminescence from secreted Gluc protein)” value (“Expression” for short) (HEK293 cells) was 8.85E+07.

B2: EV D94 (nucleic acid, listed as Enterovirus sp.)
chain: CGTGGCGGCCAGTACTCTGGTATCACGGTACCTTTGTACGCCTGTTTTATATCCCCTTCCCCCGCAACTTAGAAGAAAACAAATCAAGTTCACTAGGAGGGGGTACAAACCAGTACCACCACGAACAAGCACTTCTGTTTCCCCGGTGATGTCGTATAGACTGTAACCACGGTTGAAAACGATTGATCCGTTATCCGCTCTTGTACTTCGAAAAGCCCAGTATCACCTTGGAATCTTCGATGCGTTGCGCTCAGCACTCAACCCCAGAGTGTAGCTTAGGTCGATGAGTCTGGACACTCCTCACCGGCGACGGTGGTCCAGGCTGCGTTGGCGGCCTACCTGTGGTCCAAAGCCACAGGACGCTAGTTGTGAACAAGGTGTGAAGAGCCTATTGAGCTACAAGAGAATCCTCCGGCCCCTGAATGCGGCTAATCCTAACCACGGAGCAAGGGTACACAAACCAGTGTATATCTTGTCGTAACGCGCAAGTCTGTGGCGGAACCGACTACTTTGGGTGTCCGTGTTTCCTTTTGTTTTTATCATGGCTGCTTATGGTGACAATCTAAGATTGTTATCATATAGCTGTTGGATTGGCCATCCGGTAATTTATTGAGATTTGAGCATTTGCTTGTTTCTTCAACAATTTCACCTATTCATTGCATTTCAGCAGTCAAA
modifications: lipid formulation
For B2, the “Expression” value (HEK293 cells) was 9.25E+07.

B3: EV I (nucleic acid)
chain: TTAGTACTTTCTCACGGGGATAGTGGTATCCCTCCCTAGTAATTTAGAAGACTTGAAAAACCGACCAATAGGCACCTCGCATCCAGCGGGGTAAAGGTCAAGCACTTCTGTTTCCCCGGGTCGAGTAGCGATAGACTGTGCCCACGGTCGAAGGTGAAACAACCCGTTATCCGACTTTGTACTTCGGGAAGCCTAGTACCACCAAAGATTATGCTTGGGGTTTCGCTCAGCACGACCCTGGTGTAGATCAGGCCGATGGATCACCGCATTCCTCACAGGCGACTGTGGCGGTGGTCGCGTGGCAGCCTGCCGATGGGGCAACCCATCGGACGCCAAGCATATGACAGGGTGTGAAGAGCCTACTGAGCTACAAAGTATTCCTCCGGCCCCTGAATGCGGCTAATCCCAACCACGGAGCATTTGCTACCAAACCAGGTAGTGGAATGTCGTAACGGGTAACTCTGTGGCGGAACCGACTACTTTGGGTGTCCGTGTTTCCTTTTAATTTATCATTCTGTATATGGTGACAACTATAGTGCTATCTCGATTTGCATTACTATTGTTGAGATTAAAACTTTATTACATTGTTGCATTTTACCCTTTGAGTGAGTTTTCACCTGAACAGATTAATTTACTCATCCTGTTTATATATTACAAGCAGAAATACTTGCAAAG
modifications: lipid formulation; Enterovirus I
In the case of B3, the “Expression” value (HEK293 cells) is reported as 1.31E+08.

B4: EV 30 (nucleic acid, listed as Enterovirus sp.)
chain: AAGCAAGGCAAACCTGACCAATAGTAGGTGTGGCACACCAGCCGCATTTTGGTCAAGCACTTCTGTTTCCCCGGACCGAGTATCAATAAGCTGCTCACGCGGCTGAAGGAGAAACCGTTCGTTACCCGACCAGCTACTTCGAGAAACCTAGTAACACTATGAACGTTGCGGAGTGTTTCGTTCAGCACTTCCCCCGTGTAGATCAGGTCGATGAGTCACCGCATTCCTCACGGGTGACCGTGGCGGTGGCTGCGTTGGCGGCCTGCCTACGGGTTCGCCCGTAGGACGCTCTAATACCGACATGGTGTGAAGAGTCCATTGAGCTAGCTGGTAGTCCTCCGGCCCCTGAATGCGGCTAATCCTAACTGCGGAGCAGGTGCTCACAGACCAGTGAGTAGCCTGTCGTAACGGGCAACTCTGCAGCGGAACCGACTACTTTGGGTGTTTTTCCTTTTTTCTTCTCTTATATTGGCTGCTTATGGTGACAATTAAAGAATTGTTACCATATAGCTATTGGATTGGCCATCCGGTGACGAGCAGAGCCATTGTTTACCTCTTTGTTGGATTTGTACCTTTGAACCACAAAGTCTTGAATACCATTCATCTCATTTTAAAGTTCAACTCAGCTAAAAGAAA
modifications: lipid formulation
With B4 the “Expression” value (HEK293 cells) was 5.48E+06.

B5: EV F1 BEV 261 (nucleic acid, listed as Enterovirus sp.)
chain: GCAATGCTGCACCAGTGCACTGGTACGCTAGTACCTTTTCACGGAGTAGATGGTATCCCTTACCCCGGAACCTAGAAGATTGCACACAAACCGACCAATAGGCGCACCGCATCCAGCCGTGCAGCGGTCAAGCACTTCTGTCTCCCCGGTCTGTAAAGATCGTTATCCGCCCGACCCACTACGAAAAGCCTAGTAACTGGCCAAGTGAACGCGAAGTTGCGCTCCGCCACAACCCCAGTGGTAGCTCTGGAAGATGGGGCTCGCACCACCCCCGTGGTAACACGGTTGCCTGCCCGCGTGTGCTTCCGGGTTCGGTCTCGTGCCGTTCACTTCAACTTCACGCAACCAGCCAAGAGCCTATTGTGCTGGGACGGTTTTCCTCCGGGGCCGTGAATGCTGCTAATCCCAACCTCCGAGCGTGTGCGCACAATCCAGTGTTGCTACGTCGTAACGCGTAAGTTGGAGGCGGAACAGACTACTTTCGGTACCCCGTGTTTCCTCTCATTTTATTTAATATTTTATGGTGACAATTGTTGAGATTTGCGCTCTTGCAACGTTGCCATTGAATATTGGCTTATACTATTTGGTTGCCTTTTACAAAACCTCTGATATACCCAGTTCTTACATTGATCTGCTTGTTTTTCTCAATTTGAAGTATAGACTACAAATAGCAAA
modifications: lipid formulation
With B5 the “Expression” value (HEK293 cells) was 1.12E+07.

B6: Salivirus A SZ-1 (nucleic acid)
DNA: TCTGTCCTCACCCCATCTTCCCTTCTTTCCTGCACCGTTACGCTTACTCGCATGTGCATTGAGTGGTGCACGTGCTTGAACAAACAGCTACACTCACATGGGGGCGGGTTTTCCCGCCCTGCGGCCTCTCGCGAGGCCCACCCCTCCCCTTCCTCCCATAACTACAGTGCTTTGGTAGGTAAGCATCCTGATCCCCCGCGGAAGCTGCTCACGTGGCAACTGTGGGGACCCAGACAGGTTATCAAAGGCACCCGGTCTTTCCGCCTTCAGGAGTATCCCTGCTAGTGAATTCTAGTAGGGCTCTGCTTGGTGCCAACCTCCCCCAAATGCGCGCTGCGGGAGTGCTCTTCCCCAACTCACCCTAGTATCCTCTCATGTGTGTGCTTGGTCAGCATATCTGAGACGATGTTCCGCTGTCCCAGACCAGTCCAGTAATGGACGGGCCAGTGTGCGTAGTCGTCTTCCGGCTTGTCCGGCGCATGTTTGGTGAACCGGTGGGGTAAGGTTGGTGTGCCCAACGCCCGTACTTTGGTGATACCTCAAGACCACCCAGGAATGCCAGGGAGGTACCCCGCTTCACAGCGGGATCTGACCCTGGGCTAATTGTCTACGGTGGTTCTTCTTGCTTCCACTTCTTTCTACTGTTCATG
modifications: source: /note="Description of Unknown: Salivirus A sequence"
For B6, the “luminescence at 24 hours” value (1C1C7 cells [3]) was “produced high luminescence”.

B7: PSIV (2x mut for Xbal) (nucleic acid)
DNA: GCAAAATGGGTACGTAGTTAACCACTGCGTATCAGGATTGCAGGCCACGAAGGGTATTTGCATATCTTTCTATGCGGTATTACGGCTTAAAACCCGTTGTATCTTGTTGTTTGACTGCCTGTATCACTAGTGGCCATTTTATTTAGGTTAGAGACCCCTGATAGTAGGAGAGTTACAAACTCTTTAAAAATTGTTGACCCCGGAAAAGATGGTGACCCCTGTAAGTAGTTGATCAAGAAGATCTATGCGCTGGCATAGTAATCCAGTGTTTCCTGTTTTAGGATGACCTCTGAAAGTAGATGACCGTGGAAAGTCACGTAGTGCCCCAATAAGCACGTTTGGGCAGCGTGCGCTATCACAAGGCTTGATCTCCGAGGAGCCCCTTGTTTTAGCTGGCTGGAAGCCAATGATCTTAAGTAGATAAGTGCTGTTGCTTGTAGTTCAACAGAAAGCTTTGAGTACGTCTTTCTTGCGAGAAAGAACACATGCATTCTTATGCTCTCAATTCTATTATTTTTATTTTGGGCGAAAGGAAAGCTCTCACGCGAGTACGAATAGCCAACCCTTTAT
modifications: lipid formulation
For B7, the “Expression” value (HEK293 cells) was 9.70E+04.
